Earlier results in patent publication US20050272714A1, “Use of targeted oxidative therapeutic formulation in treatment of diabetes and obesity” (priority 2004, published 2005).

What was measured:
[1] = system: peroxide-sensitive E. coli; settings: infused into the blood of infected rabbits
E. coli = settings: increasing concentration ex-vivo in rabbit or human blood

## OO [hydrogen peroxide]
[1]
  bactericidal effect: no bactericidal effect
E. coli
  direct bactericidal activity: no evidence of direct bactericidal activity
